The values below come from publication PMC11378297, “Discovery and Profiling of New Multimodal Phenylglycinamide Derivatives as Potent Antiseizure and Antinociceptive Drug Candidates” (ACS Chemical Neuroscience, 2024).

For one data set, the target named is T1, CYP3A4 (Homo sapiens, UniProt P08684).
T1 construct: purchased Promega (Madison, WI, USA)
The data set is described as follows: CYP3A4 P450-Glo assay. Conditions: 10 μM. The data set is classed as in vitro ADME. How it is done:
The inhibition effect of enantiomers on CYP2C9 was also determined, but only at the highest concentrations (Figure 10C). In summary, the potential for DDIs of the tested enantiomers in comparison to the reference CYP inhibitors was estimated as very low.
Figure 10 Influence of (R)-31, (R)-32, and (R)-33 on: CYP3A4 activity (A) and the reference inhibitor ketoconazole (KE), CYP2D6 activity (B) and the reference inhibitor quinidine (QD), CYP2C9 activity (C) and the reference inhibitor sulfaphenazole (SE). The results are presented as means + SD. Statistical significance was evaluated by one-way ANOVA, followed by Bonferroni’s multiple comparison post hoc test (Graph Pad Prism 8.0.1 software) *p < 0.05, **p < 0.01, ***p < 0.001, ****p < 0.0001.
All assays and protocols used for the evaluation of compounds ADME-Tox parameters were described previously.[35]−[38],[95]−[98] […] The vitality of the cells was assessed using the CellTiter 96 AQueous Non-Radioactive Cell Proliferation Assay (Promega, Madison, WI, USA), following a 48 h incubation period with either the reference medication, doxorubicin (DOX), or serial dilutions of the investigated compounds. Using an EnSpire PerkinElmer microplate reader (Waltham, MA, USA), the luminescent signal and absorbances (measured at 490 nm) in DDIs and safety assays were determined. […]

The structures appear in SMILES notation.

T1 sequence (P08684 whole entry): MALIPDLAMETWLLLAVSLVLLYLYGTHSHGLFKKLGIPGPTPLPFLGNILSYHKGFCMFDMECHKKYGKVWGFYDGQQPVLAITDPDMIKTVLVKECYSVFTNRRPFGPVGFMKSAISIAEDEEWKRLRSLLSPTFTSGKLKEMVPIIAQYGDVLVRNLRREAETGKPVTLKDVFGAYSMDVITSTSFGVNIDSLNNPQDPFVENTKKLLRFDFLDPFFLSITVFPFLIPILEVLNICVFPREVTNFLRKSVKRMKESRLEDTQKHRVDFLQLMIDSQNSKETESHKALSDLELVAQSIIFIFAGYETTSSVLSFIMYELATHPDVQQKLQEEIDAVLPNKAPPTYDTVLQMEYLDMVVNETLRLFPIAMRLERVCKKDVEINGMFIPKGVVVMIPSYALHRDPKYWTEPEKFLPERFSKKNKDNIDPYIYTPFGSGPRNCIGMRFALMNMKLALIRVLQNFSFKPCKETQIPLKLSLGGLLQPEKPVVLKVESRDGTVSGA

Turning to `CC(=O)N[C@@H](C(=O)N1CCN(c2cccc(C(F)(F)F)c2)CC1)c1ccccc1` [(R)-31, (R)-N-(2-Oxo-1-phenyl-2-(4-(3-(trifluoromethyl)phenyl)piperazin-1-yl)ethyl)acetamide], the melting point was 112.9 to 113.5 °C. Besides, the “effect on CYP3A4 activity” value at CYP3A4 is listed as “significantly inhibited”.

For orientation: melting point means the temperature, or range, at which the solid turns liquid.
